SMILES strings stand for the structures. Like-named read-outs stand apart in the source and are kept apart here.

Data set [1] is described as follows: Maximum wavelength λmax of photocatalysts. It is filed as physicochemical. Particulars: Table 2.
For data set [2], the target named is T1, Aβ1-42 (Homo sapiens, UniProt P05067).
T1 construct: phosphate buffer (pH 7.4)/cell culture solution (containing 0.1% horse serum) (1:3) containing Aβ1-42 (10 μM)
As to the kind of experiment: Oxygenation under mouse skin, Test Example 7. The format is in vivo. Particulars: microtube with Aβ1-42 20 μM aggregated 3 hours, implanted in back skin, LED 780 nm, 30 minutes. How it is done: A microtube containing a phosphate buffer containing Aβ1-42 (20 μM, aggregated in advance for 3 hours) and the compound E or a compound 3 [9-(6-bromo-3-methyl-1,3-benzotriazol-3-ium-2-yl)-julolidine] was implanted in the back skin of a wild mouse, and light irradiation with an LED lamp was performed from the outside of the mouse body at a wavelength of 780 nm for 30 minutes (FIG. 10). As a control experiment, another microtube containing the same components (Aβ1-42 (20 μM, aggregated in advance for 3 hours) and the compound E or the compound 3) was directly subjected to light irradiation outside of the mouse body. The reaction mixture was analyzed by using a MALDI-TOF MS, and then subjected to ZipTip treatment for analysis. The percentage of oxygenation ratio was calculated from the percentage of oxygenation ratio under the skin and the oxygenation ratio outside of the skin “[oxygenation ratio under mouse skin/oxygenation ratio outside of mouse skin]×100”.

Another data set addresses T2, Arctic Aβ1-38 (Homo sapiens, UniProt P05067, E693G).
T2 construct: The peak intensity decreased by 36%/53%/74% for Arctic Aβ1-38; from tissue; host or cells: cerebral cortex and hippocampus of App knock-in mouse
The format is biochemical. To be noted: mouse brain lysate, light 780 nm. How it is done: The brain excised from an eight-month-old App knock-in (App^NL-C-F/NL-C-F) mouse (Alzheimer's model mouse) was separated into the cerebral cortex, the hippocampus, and the residual brain tissues. The cerebral cortex and the hippocampus were homogenized together in a phosphate buffer saline, and the suspension was stored at −80° C. […] At an arbitrary point of time, an arbitrary aliquot of the reaction mixture was diluted with formic acid to a final concentration of 70%, concentrated, and redissolved in a 6 M aqueous solution of urea.

Data set [3] addresses T1, Aβ1-42. Nature of the data set: Degree of oxygenation of pre-aggregated Aβ1-42 (MALDI-TOF MS), Test Example 10. The format is biochemical. Particulars: pre-aggregated Aβ1-42 20 μM, catalyst 2 μM, phosphate buffer pH 7.4, 780 nm (14 mW), 37° C., 30 minutes. How it is done: Aβ1-42 isopeptide (concentration: 250 μM in 0.1% aqueous solution of trifluoroacetic acid), angiotensin IV (200 μM aqueous solution), Met-enkephalin (200 μM aqueous solution), and somatostatin (200 μM aqueous solution) were added to a phosphate buffer or phosphate buffer saline (pH 7.4) (with 0.1 M aqueous solution of sodium hydroxide, as necessary) so that a final peptide concentration of 20 μM or 40 μM (pH 7.4) was reached. Before being subjected to oxygenation reaction, the Aβ1-42 solution was incubated at 37° C. for 1 to 3 hours. The phosphate buffer containing 40 μM of Aβ was diluted with a Dulbecco's modified Eagle's medium (DMEM, Life Technologies) containing 0.1% horse serum and buffered with 25 mM of 4-(2-hydroxyethyl)-1-piperazineethanesulfonic acid (HEPES).
Solutions of the compounds with a final concentration of 2 μM were used for evaluation of oxygenation of Aβ1-42. Solutions of the compounds with a final concentration of 5 μM were used for evaluation of peptide selectivity. Each mixture was subjected to light irradiation with an LED (wavelength: 500, 660, or 780 nm) at a distance of approximately 5 to 10 cm at room temperature. A control group without light irradiation was additionally prepared. Reaction was analyzed through monitor analysis with a MALDI-TOF MS. Degree of oxygenation was determined as a ratio: degree of oxygenation (%)=(total of MS intensities for n[O] adducts)/(MS intensity for native+total of MS intensities for n[O] adducts)×100. Aliquots of each reaction solution were desalted with a ZipTip U-C18 (Merck Millipore), as necessary, before mass spectrometry.
a: A phosphate buffer (pH 7.4) solution containing pre-aggregated Aβ1-42 (20 μM, incubated at 37° C. for 3 hours) and a catalyst (2 μM) was subjected to light irradiation (wavelength: 660 nm) at 37° C. for 30 minutes. Thereafter, the reaction mixture was analyzed by using a MALDI-TOF MS.
a: A phosphate buffer (pH 7.4) containing pre-aggregated Aβ1-42 (20 μM, obtained through incubation at 37° C. for 3 hours) and a catalyst (2 μM) were subjected to light irradiation at 780 nm (14 mW) at 37° C. for 30 minutes. The reaction mixture was analyzed by using a MALDI-TOF MS.

In data set [4] the test system is PC 12 cells. As to the kind of experiment: Cytotoxicity under light irradiation, WST-8 cell viability, Test Example 2. The format is cell-based, rat. To be noted: LED 660 nm, 10 mW, 5 minutes, then 48 hours. (In general: Tetrazolium dyes change colour on reduction, which living cells bring about.)
Experimental: A culture medium for rat adrenal medulla-derived pheochromocytoma PC 12 cells (purchased from RIKEN, Japan) seeded on a poly-D-lysine-coated 96-well plate was replaced with 75 μL of a Dulbecco's modified Eagle's medium containing 0.1% horse serum, and the culture was incubated in a 5% CO2 atmosphere at 37° C. for 1 day, and 25 μL of a phosphate buffer saline (pH 7.4) containing a inventive compound was then added thereto. Thereafter, the mixed solution was incubated under LED irradiation (wavelength: 660 nm, 10 mW) (without light irradiation for dark) at 37° C. for 5 minutes. Further, the cell culture plate containing the reaction solution was incubated in a 5% CO2 atmosphere at 37° C. for 48 hours. Finally, the Cell Count Reagent SF (10 μL: purchased from NACALAI TESQUE, INC.) containing WST-8 was added, and the culture was incubated in a 5% CO2 atmosphere at 37° C. for 3 hours, and thereafter the cell viability was determined from the absorbance at 450 nm (reference wavelength: 655 nm).
Data set [5] relates to PC 12 cells. As to the kind of experiment: Action on cells through selective oxygenation of Aβ1-42, WST-8 cell viability, Test Example 3. It is filed as cell-based, rat. To be noted: Aβ 10 μM, compound E 1 or 3 μM, 48 hours. How it is done: A phosphate buffer saline (pH 7.4) containing Aβ (40 μM) was incubated at 37° C. for 3 hours. Subsequently, the compound E was added thereto (4 or 12 μM). A culture medium for rat adrenal medulla-derived pheochromocytoma PC 12 cells (purchased from RIKEN, Japan) seeded on a poly-D-lysine-coated 96-well plate was replaced with 75 μL of a Dulbecco's modified Eagle's medium containing 0.1% horse serum, and the culture was incubated in a 5% CO2 atmosphere at 37° C. for 1 day, and 25 μL of the phosphate buffer saline (pH 7.4) containing Aβ and the compound E was then added thereto (final volume: 100 μL, final concentration of Aβ: 10 μM, final concentration of compound E: 1 or 3 μM). […] Finally, the Cell Count Reagent SF (10 μL: purchased from NACALAI TESQUE, INC.) containing WST-8 was added, and the culture was incubated in a 5% CO2 atmosphere at 37° C. for 3 hours, and thereafter the cell viability was determined from the absorbance at 450 nm (reference wavelength: 655 nm).
From the results shown in FIG. 4, an attempt was made to examine whether the toxicity of Aβ1-42 can be reduced through oxygenation of the Aβ1-42 in the presence of cells. […] The cell viability was determined through measurement of the absorption by WST-8 at 450 nm by using a plate reader.

With `O=C(O)CCCCCN1CCCc2cc(/C=C/C3=[O+][B-](F)(C(F)(F)C(F)(F)F)OC(/C=C/c4cc5c6c(c4)CCCN6CCC5)=C3Br)ccc21` (stereo not drawn) [Compound E], the “Maximum wavelength λmax (nm)” value in data set [1] stood at 639 nm. On Aβ1-42 [2], the “percentage of oxygenation ratios [oxygenation ratio under mouse skin/oxygenation ratio outside of mouse skin]×100” value came out at 65%. The “decrease of peak intensity (conversion) of Arctic Aβ1-38” value was found to be 36% at Arctic Aβ1-38 (30 minutes), 53% at Arctic Aβ1-38 (60 minutes) and 74% at Arctic Aβ1-38 (150 minutes). The “Degree of oxygenation (%) of Aβ42 (λ = 780 nm)” value on Aβ1-42 [3] was 58%. In addition, the “toxicity under light irradiation (ranking)” value with PC 12 cells [4] is on record as “the lowest”. Moreover, the “cell viability with Aβ1-42 and compound E” value in the data set on PC 12 cells [5] (under LED irradiation 660 nm, 10 mW, 5 minutes) is reported as “the cell viability was significantly improved”; in the data set with PC 12 cells [5] (without light irradiation), “significant cell death”.

Source of the values: patent publication US10669287B2, “Curcumin-boron complex and pharmaceutical containing same” (JAPAN SCIENCE AND TECHNOLOGY AGENCY, priority 2016, dated 2020).
